Here are results for two compounds from ChEMBL document CHEMBL5505964, “HDAC/NAMPT dual inhibitors overcome initial drug-resistance in p53-null leukemia cells” (Eur J Med Chem, 2024).

By half-life is commonly meant how long it takes for the measured level to halve. Read a high half-life as slow decline. The IC50 is the concentration needed to halve the response being measured. Broadly, the Cmax is the maximum level reached in the sampled fluid or tissue. One may read the AUC(0-inf) as the area under the concentration-time curve extrapolated to infinity. High values mean high exposure, low ones low exposure. What is called clearance is the rate of elimination divided by the concentration. Lower therefore signals inefficient removal.

Series [1] is described as follows: Half life in CD-1 male mouse at 5 mg/kg, iv measured for 24 hrs by LC-MS/MS analysis. The series is classed as ADME, organism-based. The note with it: CD-1, mouse, in vivo.
The target in series [2] is T1, Protein deacetylase HDAC6 (Homo sapiens, UniProt Q9UBN7).
T1 sequence (Q9UBN7 whole entry): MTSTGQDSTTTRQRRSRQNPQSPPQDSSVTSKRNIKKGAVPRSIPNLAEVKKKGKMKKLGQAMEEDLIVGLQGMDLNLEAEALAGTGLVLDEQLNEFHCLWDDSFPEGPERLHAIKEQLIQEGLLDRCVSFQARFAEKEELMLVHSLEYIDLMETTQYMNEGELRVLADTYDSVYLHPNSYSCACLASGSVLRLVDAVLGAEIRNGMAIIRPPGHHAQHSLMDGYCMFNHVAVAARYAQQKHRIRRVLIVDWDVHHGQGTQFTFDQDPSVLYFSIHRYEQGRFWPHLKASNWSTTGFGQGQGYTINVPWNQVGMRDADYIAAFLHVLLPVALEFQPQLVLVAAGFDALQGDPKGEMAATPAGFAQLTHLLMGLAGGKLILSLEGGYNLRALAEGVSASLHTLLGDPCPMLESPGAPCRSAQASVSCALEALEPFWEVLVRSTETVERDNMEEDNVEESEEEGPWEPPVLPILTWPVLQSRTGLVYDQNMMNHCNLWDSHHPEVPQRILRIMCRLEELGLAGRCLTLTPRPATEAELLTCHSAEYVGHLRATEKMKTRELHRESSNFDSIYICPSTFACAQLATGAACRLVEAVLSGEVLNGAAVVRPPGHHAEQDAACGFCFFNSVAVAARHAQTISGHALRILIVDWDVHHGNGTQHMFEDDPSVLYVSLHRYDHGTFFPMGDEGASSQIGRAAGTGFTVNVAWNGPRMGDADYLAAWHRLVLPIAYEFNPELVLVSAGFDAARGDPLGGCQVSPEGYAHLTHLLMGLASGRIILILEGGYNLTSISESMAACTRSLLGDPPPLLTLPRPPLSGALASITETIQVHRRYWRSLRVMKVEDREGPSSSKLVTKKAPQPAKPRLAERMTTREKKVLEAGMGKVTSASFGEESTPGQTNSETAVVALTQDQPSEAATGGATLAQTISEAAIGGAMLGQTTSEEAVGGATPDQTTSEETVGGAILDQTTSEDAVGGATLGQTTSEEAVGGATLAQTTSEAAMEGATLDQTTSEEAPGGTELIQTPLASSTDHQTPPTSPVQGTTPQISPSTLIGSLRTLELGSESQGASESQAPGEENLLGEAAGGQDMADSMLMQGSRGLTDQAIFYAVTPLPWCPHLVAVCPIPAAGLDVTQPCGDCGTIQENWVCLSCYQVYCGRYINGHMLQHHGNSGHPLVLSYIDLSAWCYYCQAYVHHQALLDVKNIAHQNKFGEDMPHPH
As to the kind of experiment: Inhibition of N-terminal GST-tagged human full length recombinant HDAC6 (1 to 1215 residues) expressed in baculovirus-infected Sf9 cells using Boc-Lys-(acetyl)-AMC as substrate preincubated with enzyme for 1 hr followed by substrate addition and measured after 2 hrs by fluorescence analysis.

The target of series [3] is Histone deacetylase 3/Nuclear receptor corepressor 2 (HDAC3/NCoR2) (Homo sapiens, UniProt O15379). As to the kind of experiment: Inhibition of C-terminal His-tagged human HDAC3 (1 to 428 residues)/N-terminal GST tagged human NCOR2 (395 to 489 residues) expressed in baculovirus-infected Sf9 cells using Boc-Lys-(acetyl)-AMC as substrate preincubated with enzyme for 1 hr followed by substrate addition and measured after 2 hrs by fluorescence analysis.

The nature of series [4]: Cmax in CD-1 male mouse at 5 mg/kg, iv measured for 24 hrs by LC-MS/MS analysis. The series is classed as ADME, organism-based. Particulars: CD-1, mouse, in vivo.
A short description of series [5]: AUC (0 to infinity) in CD-1 male mouse at 5 mg/kg, iv by LC-MS/MS analysis. The note with it: CD-1, mouse, in vivo. The format is ADME, organism-based.
Series [6] is described as follows: Plasma clearance in CD-1 male mouse at 5 mg/kg, iv measured for 24 hrs by LC-MS/MS analysis. Particulars: CD-1, mouse. The format is ADME, organism-based.
The target in series [7] is Nicotinamide phosphoribosyltransferase (Homo sapiens, UniProt P43490). In words: Inhibition of N-terminal GST-tagged human recombinant NAMPT (2 to 491 residues) expressed in Escherichia coli expression system incubated for 30 mins by fluorescence based analysis.
Nicotinamide phosphoribosyltransferase, sequence (P43490 whole entry, the tested form may be a part): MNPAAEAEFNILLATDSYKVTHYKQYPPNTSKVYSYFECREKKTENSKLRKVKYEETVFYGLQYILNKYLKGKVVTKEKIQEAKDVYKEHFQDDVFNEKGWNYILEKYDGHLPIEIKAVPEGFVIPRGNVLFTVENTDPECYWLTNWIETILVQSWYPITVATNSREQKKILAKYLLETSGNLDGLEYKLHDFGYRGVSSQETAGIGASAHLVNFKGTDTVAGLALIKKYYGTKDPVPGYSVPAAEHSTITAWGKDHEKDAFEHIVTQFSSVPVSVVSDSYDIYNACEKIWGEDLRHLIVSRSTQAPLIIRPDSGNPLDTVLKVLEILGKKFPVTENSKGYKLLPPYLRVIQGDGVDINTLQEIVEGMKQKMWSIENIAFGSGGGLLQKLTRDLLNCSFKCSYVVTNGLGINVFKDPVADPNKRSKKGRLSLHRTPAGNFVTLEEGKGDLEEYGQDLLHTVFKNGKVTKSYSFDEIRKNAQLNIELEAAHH

Histone deacetylase 3/Nuclear receptor corepressor 2 (HDAC3/NCoR2), sequence (O15379 whole entry, the tested form may be a part): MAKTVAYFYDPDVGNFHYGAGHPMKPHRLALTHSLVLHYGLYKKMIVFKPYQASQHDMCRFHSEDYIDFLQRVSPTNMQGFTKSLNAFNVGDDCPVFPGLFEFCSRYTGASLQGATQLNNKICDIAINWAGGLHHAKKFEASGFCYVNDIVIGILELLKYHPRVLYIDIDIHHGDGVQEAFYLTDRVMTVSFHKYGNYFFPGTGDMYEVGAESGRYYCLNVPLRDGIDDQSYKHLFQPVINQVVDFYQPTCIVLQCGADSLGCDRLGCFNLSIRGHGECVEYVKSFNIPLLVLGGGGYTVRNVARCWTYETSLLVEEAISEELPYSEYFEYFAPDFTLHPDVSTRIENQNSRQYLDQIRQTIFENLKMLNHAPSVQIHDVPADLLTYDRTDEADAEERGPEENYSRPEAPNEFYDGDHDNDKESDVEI
Histone deacetylase 3/Nuclear receptor corepressor 2 (HDAC3/NCoR2), sequence (Q9Y618 whole entry, further chain, the tested form may be a part): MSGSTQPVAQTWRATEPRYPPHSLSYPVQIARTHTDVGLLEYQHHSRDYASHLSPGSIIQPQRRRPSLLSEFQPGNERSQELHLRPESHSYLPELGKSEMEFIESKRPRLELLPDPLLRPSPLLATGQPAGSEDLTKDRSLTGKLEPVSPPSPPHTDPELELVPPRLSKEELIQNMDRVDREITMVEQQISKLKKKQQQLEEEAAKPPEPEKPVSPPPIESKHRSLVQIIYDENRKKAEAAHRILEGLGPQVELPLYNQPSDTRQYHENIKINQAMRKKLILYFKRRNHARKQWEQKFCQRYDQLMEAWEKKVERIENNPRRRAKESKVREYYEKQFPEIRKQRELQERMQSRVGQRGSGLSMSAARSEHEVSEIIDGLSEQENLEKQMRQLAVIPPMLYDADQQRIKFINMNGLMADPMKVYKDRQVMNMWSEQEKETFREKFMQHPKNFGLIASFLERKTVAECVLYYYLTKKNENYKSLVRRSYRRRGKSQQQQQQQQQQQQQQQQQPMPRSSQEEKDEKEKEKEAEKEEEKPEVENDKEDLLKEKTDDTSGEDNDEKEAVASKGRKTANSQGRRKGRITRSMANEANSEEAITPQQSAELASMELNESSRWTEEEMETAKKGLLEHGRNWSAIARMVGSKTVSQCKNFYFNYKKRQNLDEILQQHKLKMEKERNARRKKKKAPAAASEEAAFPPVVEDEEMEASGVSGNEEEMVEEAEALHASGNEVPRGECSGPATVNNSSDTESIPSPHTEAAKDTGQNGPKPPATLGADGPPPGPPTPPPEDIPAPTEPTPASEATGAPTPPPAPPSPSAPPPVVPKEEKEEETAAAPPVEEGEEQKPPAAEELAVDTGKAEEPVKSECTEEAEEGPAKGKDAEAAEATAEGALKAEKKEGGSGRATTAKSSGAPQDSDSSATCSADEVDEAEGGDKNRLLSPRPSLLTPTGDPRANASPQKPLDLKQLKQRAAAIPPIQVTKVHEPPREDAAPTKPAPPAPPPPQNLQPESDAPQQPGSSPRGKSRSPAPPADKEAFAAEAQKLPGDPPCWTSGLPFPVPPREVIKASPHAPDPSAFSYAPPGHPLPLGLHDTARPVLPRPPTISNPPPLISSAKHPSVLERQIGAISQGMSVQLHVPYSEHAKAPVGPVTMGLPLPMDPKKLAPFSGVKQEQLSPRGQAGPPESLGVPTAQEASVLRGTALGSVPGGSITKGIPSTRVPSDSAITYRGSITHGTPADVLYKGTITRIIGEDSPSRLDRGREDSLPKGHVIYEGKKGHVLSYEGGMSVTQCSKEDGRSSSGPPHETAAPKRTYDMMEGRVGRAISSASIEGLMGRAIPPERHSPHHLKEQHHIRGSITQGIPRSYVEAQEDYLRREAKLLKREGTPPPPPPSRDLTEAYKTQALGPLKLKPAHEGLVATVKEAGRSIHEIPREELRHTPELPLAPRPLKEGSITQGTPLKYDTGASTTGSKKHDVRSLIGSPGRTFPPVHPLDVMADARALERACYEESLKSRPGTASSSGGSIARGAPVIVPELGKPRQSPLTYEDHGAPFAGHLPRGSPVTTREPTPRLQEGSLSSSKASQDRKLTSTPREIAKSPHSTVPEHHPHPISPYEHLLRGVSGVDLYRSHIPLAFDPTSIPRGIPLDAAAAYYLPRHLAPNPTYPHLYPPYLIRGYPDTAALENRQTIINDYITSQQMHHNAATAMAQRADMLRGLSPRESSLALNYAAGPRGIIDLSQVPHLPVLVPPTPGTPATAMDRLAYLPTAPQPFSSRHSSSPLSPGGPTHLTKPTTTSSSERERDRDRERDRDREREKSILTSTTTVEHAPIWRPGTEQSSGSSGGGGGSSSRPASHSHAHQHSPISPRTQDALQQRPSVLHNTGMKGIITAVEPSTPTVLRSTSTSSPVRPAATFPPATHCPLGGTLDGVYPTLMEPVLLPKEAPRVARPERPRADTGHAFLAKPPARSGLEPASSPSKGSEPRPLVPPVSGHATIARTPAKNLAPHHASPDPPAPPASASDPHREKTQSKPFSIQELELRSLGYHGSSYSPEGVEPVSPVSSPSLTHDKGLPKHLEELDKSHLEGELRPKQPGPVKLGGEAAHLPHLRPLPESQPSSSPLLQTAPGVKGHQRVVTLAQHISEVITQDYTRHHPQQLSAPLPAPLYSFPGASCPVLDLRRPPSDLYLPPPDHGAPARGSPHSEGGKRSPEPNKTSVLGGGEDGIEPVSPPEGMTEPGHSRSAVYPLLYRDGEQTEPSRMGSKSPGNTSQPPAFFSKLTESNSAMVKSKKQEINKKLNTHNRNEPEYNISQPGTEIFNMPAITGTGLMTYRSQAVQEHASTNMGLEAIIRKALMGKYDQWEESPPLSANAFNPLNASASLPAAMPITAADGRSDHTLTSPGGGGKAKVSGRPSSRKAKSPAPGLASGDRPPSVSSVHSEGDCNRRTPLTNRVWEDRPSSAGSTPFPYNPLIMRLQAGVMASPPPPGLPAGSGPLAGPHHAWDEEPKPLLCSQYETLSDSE

In series [1], `CCCNNC(=O)c1ccc(CNC(=O)c2cc3cnccc3[nH]2)cc1` showed a half-life of 9.19 h. Besides, the 50% inhibitory concentration (IC50) was greater than 10000 nM in series [2] and 0.72 nM in series [3]. The compound further registered a Cmax in series [4] of 11700 ng/mL. The AUC(0-inf) in series [5] came out at 3360 ng·h/mL. Also, the clearance in series [6] came out at 25.1 mL/min/kg.

Take `CCCNNC(=O)c1ccc(CNC(=O)/C=C/c2cccnc2)cc1`: the IC50 was 1660 nM in series [7] and greater than 10000 nM in series [2].
